One series concerns the target LTA4H (Mus musculus (Mouse), UniProt P24527). The series can be described thus: LTB4 Target Engagement Assay (in vivo dosing, calcimycin stimulated blood). As to conditions: for LTB4 levels in calcimycin stimulated plasma: aged mice. How it is done: Whole blood was collected by cardiac puncture using heparin as an anti-coagulant. 160 μL of whole blood was collected in duplicate for each mouse and incubated for 15 minutes in 37° C./5% CO2. During this time a 0.1 mM calcimycin stock was made by diluting 10 mM calcimycin (Sigma C7522) formulated in DMSO into PBS. Control solution was made by diluting the same volume of DMSO in PBS. Both solutions were sonicated for 10 minutes in a 37° C. water bath. 40 μL of 0.1 mM calcimycin (stimulated) or control solution (unstimulated) was added to each well of whole blood and incubated at 37° C./5% CO2 for 30 minutes. Whole blood was spun for 10 minutes at 1000×g to separate out plasma. LTB4 levels were detected by running an ELISA on the collected stimulated and unstimulated plasma diluted 1:10 (Enzo Life Sciences, ADI-901-068). The ELISA plates were read on a BMG LABTECH CLARIOstar plate reader at 405 nm.
FIGS. 60-62 report the results of in vivo target engagement assays with Compound 1 in mouse plasma. Whole blood from mice dosed with Compound 1 for 10-day FIG. 60 or 4 weeks FIG. 61 was incubated with a calcium ionophore to stimulate LTB4 release. Plasma was generated and LTB4 levels were measured using ELISA. LTB4 is the product of LTA4H hydrolysis so this assay reports on LTA4H enzymatic activity.

Series [1] relates to aged C57BL6 mice. Briefly: Nesting. In kind it is in vivo, mouse. As to conditions: 10 days of dosing. How it is done:
All nesting material was removed from home cage and mice were given 2 fresh nestlets 12-18 hours prior to scoring. The nest was carefully scored on a scale of 0-5 by an experimenter blinded to treatment group: 0 undisturbed, 1 disturbed, 2 flat, 3 cup, 4 incomplete dome, 5 complete dome.

Series [2] has as its system Male C57BL/6 mice aged 20-21 months. The series can be described thus: Example 15: gene expression and histology, Compound 1 versus SC-57461A. In kind it is in vivo, mouse. As to conditions: Compound 1 1 mg/kg, SC-57461A 2.5 mg/kg PO bid one month. The method, then:
Male C57BL/6 mice aged 20-21 months are treated with Vehicle, Compound 1, or SC-57461A commercially available LTA4H inhibitor. The mice are dosed with Compound 1 at 1 mg/kg or SC-57461A at 2.5 mg/kg PO bid for one month. Mice are anesthetized and blood and tissues are collected for further analysis. Blood is collected via cardiac puncture in syringes pre-filled with Heparin. Brains are collected following ACSF perfusion and processed for single cell RNA sequencing of either labeled endothelial cells (experiment 1) or NeuN-positive neuronal nuclei (experiment 2). In a+ separate cohort of mice, brains are collected following 4% PFA perfusion for histological endpoints (experiment 3).

The subject of series [3] is purified endothelial cells from the brains of aged C57BL/6 mice. Briefly: Microbulk qPCR of endothelial genes. As to conditions: 1 month bid P.O., 1 mg/kg Compound 1 or 2.5 mg/kg SC57461A. In kind it is in vivo, mouse. How it is done: Downregulation of the detrimental genes Bsg, Gbp4, and CXCL12 in purified endothelial cells from the brains of mice treated with LTA4H inhibitors Compound 1 or SC57461A were compared to those of vehicle treated mice. Gene expression was measured by qPCR from 500 sorted endothelial cells and was normalized to GAPDH control.
Aged C57BL/6 mice (21 months of age) were treated for 1 month bid P.O. with vehicle, 1 mg/kg Compound 1, or 2.5 mg/kg SC57461A (n=3 mice per treatment group). One cortical cap (cortex and hippocampus) from each mouse was isolated and cells were dissociated using Miltenyi Neutral Dissociation Kit (#130-092-628). Cells were sorted using Sony Multi-Application Cell Sorter MA900 into clean, RNAase free 200 uL PCR strip tube with 5 uL RNAlater at a concentration of 500 cells per tube. RNA was isolated follow kit protocol for Qiagen RNeasy Micro Kit (#74004). cDNA was synthesized using SuperScript III Kit Protocol and qPCR assays were run using TaqMan or SYBR green primers.
Downregulation of the beneficial gene, Plat, in purified endothelial cells from the brains of mice treated with LTA4H inhibitors Compound 1 or SC57461A were compared to those of vehicle treated mice. Gene expression was measured by qPCR from 500 sorted endothelial cells and was normalized to GAPDH control.

Series [4] concerns aged C57BL6 mice. The series can be described thus: Inverted Wire Hang. As to conditions: 12 days of dosing. In kind it is in vivo, mouse. The method, then: Mice were brought into the experimental room for at least 20 minutes of acclimation to the experimental room conditions (bright lighting) prior to testing. Each mouse was placed in the center of the grid. Then swiftly in one continuous motion the grid was inverted 180 degrees to suspend the mouse upside down with their nose being the last part of the mouse to be suspended. The timer was started once the mouse was completely suspended and time to fall was recorded. Mice were tested 3 times with no rest period between each test with a maximum suspension time of 120 seconds. The maximum and average time to fall were scored for each animal.

Series [5] relates to aged C57BL6 mice. The series can be described thus: Rotarod. In kind it is in vivo, mouse. As to conditions: 19 days of dosing. The method, then: Mice were trained by allowing to run on the rotarod at 5 RPM speed setting on the i-Therm CTR-44 Rotarod for 5 minutes, if the mouse fell off it was put back on until it was able to complete minutes without falling off. After 15 minutes, if the mouse is unable to stay on the rotarod for a continuous 5 minutes, the mouse is excluded from analysis. Mice were then given 3 trials where the speed was increased from 5 RPM to 40 RPM over 90 seconds; the time at which the mouse fell off was recorded for each trial. Inter-trial interval is at least 15 minutes to allow the mice adequate rest. The rotarod is cleaned with 70% ethanol between trials.
Background: Falling from the rotarod earlier than controls is read as motor impairment.

A short description of a further series: Body weight of aged mice. It counts as in vivo, mouse. The method, then: Three independent cohorts of aged wild type (WT; C57BL/6) mice between twenty to twenty-two months of age (20-22 mo) were homogenized into two (2) groups by body weight, total distance travelled in the open field test, and average velocity in the open field test. Group 1 was administered vehicle control PO daily. Group 2 was administered 10 mg/kg of the LTA4H inhibitor Compound 1 PO daily. Both groups were dosed for either 10 days or 4 weeks daily. Behavioral assays were run during the last week of dosing and animals were sacrificed at the end of the study for histological and molecular assays.

Sequence of LTA4H (P24527 whole entry): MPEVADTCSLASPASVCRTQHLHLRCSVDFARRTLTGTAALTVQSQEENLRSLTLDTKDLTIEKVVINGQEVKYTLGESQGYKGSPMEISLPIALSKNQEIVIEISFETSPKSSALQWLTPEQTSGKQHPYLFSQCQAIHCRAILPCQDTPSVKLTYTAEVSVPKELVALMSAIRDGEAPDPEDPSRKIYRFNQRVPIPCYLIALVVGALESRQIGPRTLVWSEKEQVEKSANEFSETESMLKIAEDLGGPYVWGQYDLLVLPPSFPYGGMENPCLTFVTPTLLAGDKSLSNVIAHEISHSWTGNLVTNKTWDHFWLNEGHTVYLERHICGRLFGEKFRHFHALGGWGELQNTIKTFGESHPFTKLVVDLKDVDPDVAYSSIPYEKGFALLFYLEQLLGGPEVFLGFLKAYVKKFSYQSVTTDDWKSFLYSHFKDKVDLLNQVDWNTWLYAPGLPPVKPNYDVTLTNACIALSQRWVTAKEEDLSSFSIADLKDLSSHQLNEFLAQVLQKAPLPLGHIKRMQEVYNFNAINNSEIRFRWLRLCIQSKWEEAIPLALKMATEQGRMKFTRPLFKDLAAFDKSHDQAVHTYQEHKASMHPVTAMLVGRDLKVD

`O=C(O)C1CCN(Cc2ccc([C@H]3COc4ccccc4O3)cc2)CC1` [Example 1, 1-{4-[(2S)-2,3-dihydro-1,4-benzodioxin-2-yl]benzyl}piperidine-4-carboxylic acid]: the “LTB4 levels in calcimycin stimulated plasma” value on LTA4H (4 weeks of dosing) and on LTA4H (10 days of dosing) was “inhibition of LTA4H” each time. Also, the “LTB4 inhibition, compound made for 3 independent studies” value at LTA4H (young mice, 2 hours after a single dose) is listed as “no difference in the amount of inhibition across the 3 independent studies”. For the same compound, the nesting building score entry in the series on aged C57BL6 mice [1] is “no change in nesting building score”. Also, the “endothelial gene expression in brain compared to SC-57461A” value in series [2] is “more robust change in endothelial gene expression”. Besides, the “histology of endothelial cells and neurons compared to SC-57461A” value in series [2] was “more robust changes in histology”. Also, the “neuronal gene expression in brain compared to SC-57461A” value in series [2] is listed as “more robust change in neuronal gene expression”. For the same compound, the Bsg gene expression result in series [3] is given as “down regulation of Bsg gene expression”. Besides, the CXCL12 gene expression entry in series [3] is listed as “down regulation of CXCL12 gene expression”. Moreover, the Gpb4 gene expression entry in series [3] is “down regulation of Gpb4 gene expression”. For the same compound, the Plat gene expression result in series [3] is listed as “up regulation of Plat gene expression”. The “maximum hang time in the wire hang test” value in the series with aged C57BL6 mice [4] is on record as “no change in maximum hang time”. Also, the “average time before falling on the rotarod” value with aged C57BL6 mice [5] is given as “no change in average time before falling”. Further, the body weight result in the series “Body weight of aged mice” (4 weeks of dosing, first cohort) is recorded as “no change in body weight”; in “Body weight of aged mice” (4 weeks of dosing, second cohort), “no change in body weight”; in the series “Body weight of aged mice” (4 weeks of dosing, third cohort), “no change in body weight”; in the series “Body weight of aged mice” (10 days of dosing, first cohort), “no change in body weight”; in “Body weight of aged mice” (10 days of dosing, second cohort), “no change in body weight”; in the series “Body weight of aged mice” (10 days of dosing, third cohort), “no change in body weight”.
